For 34 compounds, IC50 results are on record in patent publication US20240327361A1, “RADIOLABELED COMPOSITIONS AND METHODS OF USE THEREOF” (The Research Foundation for the State University of New York, priority 2021, published 2024).

One assay concerns Class-lla HDAC. Briefly: Cell-based deacetylase assay in HT-29 cells, class-IIa selective substrate Boc-Lys-TFA. The settings on record: whole-cell assay, 100 μM Boc-Lys-TFA (class-IIa selective substrate), 3 h at 37° C. The method, then:
Cell-based deacetylase assay. […] HT-29 cells (obtained from ATCC) with the addition of either 100 μM Boc-Lys-TFA (class-IIa selective substrate) or 200 μM Boc-Lys-Ac (class-I/IIb selective substrate) were plated into 96 well plates at 200,000 cells/well in 45 uL cellular assay buffer (RPMI without phenol red, 0.1% Fetal Bovine Serum) and were incubated for 3 h at 37° C. The deacetylation achieved by the addition of 50 uL HDAC developer solution (2.5 mg/ml trypsin in DMEM without Fetal Bovine Serum and 10% tween 80) for a further 1 h to sensitize the substrate and to lyse the cells. Fluorescent counts were read with microplate reader at an excitation wavelength of 360 nm and detection of emitted light of 460 nm.

Another assay relates to Class-I HDAC. Briefly: Cell-based deacetylase assay in HT-29 cells, class-I/IIb selective substrate Boc-Lys-Ac. As to conditions: whole-cell assay, 200 μM Boc-Lys-Ac (class-I/IIb selective substrate), 3 h at 37° C. The method, then:
Cell-based deacetylase assay. The cell-based assay was conducted similar to the previous work (Lobera M 2013; Luckhurst C A 2019) Briefly, compounds were diluted in 5 uL DMSO (11-point concentration curve, 5% final DMSO) and were added to 96 wells with positive (5 μM Trichostatin A (TSA)) and negative control (5 uL DMSO) wells. HT-29 cells (obtained from ATCC) with the addition of either 100 μM Boc-Lys-TFA (class-IIa selective substrate) or 200 μM Boc-Lys-Ac (class-I/IIb selective substrate) were plated into 96 well plates at 200,000 cells/well in 45 uL cellular assay buffer (RPMI without phenol red, 0.1% Fetal Bovine Serum) and were incubated for 3 h at 37° C. The deacetylation achieved by the addition of 50 uL HDAC developer solution (2.5 mg/ml trypsin in DMEM without Fetal Bovine Serum and 10% tween 80) for a further 1 h to sensitize the substrate and to lyse the cells. Fluorescent counts were read with microplate reader at an excitation wavelength of 360 nm and detection of emitted light of 460 nm.

As for `CC(C)(NCc1ccccc1)C(=O)CNC(=O)c1ccc(-c2noc(C(F)(F)F)n2)cc1` [NT2-44], the results for the half-inhibitory concentration (IC50) with Class-lla HDAC and in the assay with Class-I HDAC were 768 ± 190 nM and over 15000 nM, respectively.

Consider `C[C@@H](NC(=O)c1ccc(-c2noc(C(F)(F)F)n2)cc1)C(=O)NCc1ccccc1` [NT2-67], for which the concentration for half-maximal inhibition (IC50) in the assay with Class-lla HDAC is 953 nM; in the assay on Class-I HDAC it was over 15000 nM.

On to `COC[C@@H](NC(=O)c1ccc(-c2noc(C(F)(F)F)n2)cc1)C(=O)NCc1ccc(F)cc1` [NT2-156], for which the 50% inhibitory concentration (IC50) in the assay with Class-lla HDAC is 233 ± 110 nM; with Class-I HDAC, over 15000 nM.

On to `O=C(NC1CCN(Cc2ccccc2)C1)c1ccc(-c2noc(C(F)(F)F)n2)cc1` (stereo not drawn) [NT2-160], for which the concentration for half-maximal inhibition (IC50) in the assay with Class-I HDAC is over 20000 nM.

For the compound `O=C(NC1CCN(c2ccccc2)C1)c1ccc(-c2noc(C(F)(F)F)n2)cc1` (stereo not drawn) [NT2-174], the IC50 is over 20000 nM with Class-lla HDAC and over 50000 nM with Class-I HDAC.

Turning to `O=C(NC1CCCN(Cc2ccccc2)C1)c1ccc(-c2noc(C(F)(F)F)n2)cc1` (stereo not drawn) [NT2-190], the figures for the IC50 in the assay on Class-lla HDAC and in the assay with Class-I HDAC were over 10000 nM and over 50000 nM, respectively.

On to `CC(CN(C)Cc1ccccc1)NC(=O)c1ccc(-c2noc(C(F)(F)F)n2)cc1` (stereo not drawn) [NT2-191], for which, in the assay on Class-I HDAC, the half-maximal inhibitory concentration (IC50) was over 50000 nM.

Regarding `C[C@H](CN(C)Cc1ccc(F)cc1)NC(=O)c1ccc(-c2noc(C(F)(F)F)n2)cc1` [NT3-11D], the IC50 in the assay on Class-lla HDAC is 59 ± 16 nM; in the assay with Class-I HDAC, over 15000 nM.

Turning to `C[C@@H](CN1CC[C@H](c2ccccc2)C1)NC(=O)c1ccc(-c2noc(C(F)(F)F)n2)cc1` [NT3-16D], the IC50 with Class-lla HDAC is 5 nM; in the assay with Class-I HDAC, over 25000 nM.

Take `O=C(NC1CCN(Cc2ccc(I)cc2)C1)c1ccc(-c2noc(C(F)(F)F)n2)cc1` (stereo not drawn) [NT3-39]: the 50% inhibitory concentration (IC50) in the assay with Class-lla HDAC was 295 nM; with Class-I HDAC it was over 50000 nM.

As for `O=C(NC1CCN(Cc2ccc(F)cc2)C1)c1ccc(-c2noc(C(F)(F)F)n2)cc1` (stereo not drawn) [NT3-40], the IC50 in the assay on Class-lla HDAC is 142 nM; with Class-I HDAC, over 20000 nM.

Turning to `C[C@H](NC(=O)c1ccc(-c2noc(C(F)(F)F)n2)cc1)C(=O)N1CC[C@H](c2ccccc2)C1` [NT3-52B], the IC50 in the assay with Class-lla HDAC is over 1000 nM; in the assay with Class-I HDAC, over 50000 nM.

With `CN1CCC(NC(=O)c2ccc(-c3noc(C(F)(F)F)n3)cc2F)C1` (stereo not drawn) [NT3-75], the results for the 50% inhibitory concentration (IC50) in the assay with Class-lla HDAC and in the assay with Class-I HDAC were 72 nM and over 3000 nM, respectively.

In the case of `C[C@H](CN(C)Cc1ccccc1)NC(=O)c1ccc(-c2noc(C(F)(F)F)n2)cc1F` [NT3-76], the IC50 with Class-lla HDAC was 32 nM; with Class-I HDAC, over 5000 nM.

As to `O=C(NC1CCN(Cc2ccccc2F)C1)c1ccc(-c2noc(C(F)(F)F)n2)cc1F` (stereo not drawn) [NT3-77A], the concentration for half-maximal inhibition (IC50) was 179 nM with Class-lla HDAC and over 10000 nM in the assay on Class-I HDAC.

Take `O=C(NC1CCN(Cc2cccc(F)c2)C1)c1ccc(-c2noc(C(F)(F)F)n2)cc1F` (stereo not drawn) [NT3-77B]: the figures for the IC50 with Class-lla HDAC and in the assay on Class-I HDAC were 195 nM and over 10000 nM, respectively.

For `O=C(NC1CCN(Cc2ccc(F)cc2)C1)c1ccc(-c2noc(C(F)(F)F)n2)cc1F` (stereo not drawn) [NT3-77C], the IC50 in the assay with Class-lla HDAC was 173 nM; in the assay with Class-I HDAC, over 10000 nM.

Regarding `O=C(NC1CCN(Cc2ccccc2)C1)c1ccc(-c2noc(C(F)(F)F)n2)cc1F` (stereo not drawn) [NT3-77], the IC50 with Class-lla HDAC is 152 nM; with Class-I HDAC, over 10000 nM.

As to `CCN1CCC(NC(=O)c2ccc(-c3noc(C(F)(F)F)n3)cc2F)C1` (stereo not drawn) [NT3-81], the concentration for half-maximal inhibition (IC50) was 137 nM in the assay with Class-lla HDAC and over 5000 nM in the assay with Class-I HDAC.

As to `CCN1CCC(NC(=O)c2ccc(-c3noc(C(F)(F)F)n3)cc2)C1` (stereo not drawn) [NT3-83], the IC50 in the assay with Class-lla HDAC was 91 nM; in the assay with Class-I HDAC, over 9000 nM.

Turning to `C[C@H](CN(C)Cc1ccccc1)NC(=O)c1ccc(-c2noc(C(F)(F)Cl)n2)cc1` [NT3-89B], the half-inhibitory concentration (IC50) in the assay with Class-lla HDAC and with Class-I HDAC was over 2000 nM in each case.

In the case of `CCN1CC[C@@H](NC(=O)c2ccc(-c3noc(C(F)(F)Cl)n3)cc2)C1` [NT3-92], the values for the IC50 in the assay on Class-lla HDAC and in the assay on Class-I HDAC were over 20000 nM and over 50000 nM, respectively.

Regarding `O=C(NC1CCN(CCc2ccccc2F)C1)c1ccc(-c2noc(C(F)(F)F)n2)cc1` (stereo not drawn) [NT3-102C], the half-maximal inhibitory concentration (IC50) in the assay with Class-lla HDAC is over 10000 nM; in the assay with Class-I HDAC it was over 50000 nM.

For `O=C(NC1CCN(CCc2ccccc2)C1)c1ccc(-c2noc(C(F)(F)F)n2)cc1` (stereo not drawn) [NT3-106C], the IC50 was over 10000 nM in the assay with Class-lla HDAC and over 50000 nM with Class-I HDAC.

Consider `CN(Cc1ccccc1)C(=O)C(C)(C)CNC(=O)c1cccc(-c2noc(C(F)(F)F)n2)c1` [NT3-118], for which the IC50 in the assay on Class-lla HDAC and in the assay on Class-I HDAC was over 50000 nM throughout.

Regarding `CN(Cc1ccccc1)C(=O)C(C)(C)CNC(=O)c1ccc(-c2noc(C(F)(F)F)n2)cc1` [NT3-119], the values for the IC50 in the assay on Class-lla HDAC and in the assay with Class-I HDAC were 933 ± 260 nM and over 15000 nM, respectively.

For `O=C(NC1CCN(CCF)C1)c1ccc(-c2noc(C(F)(F)F)n2)cc1` (stereo not drawn) [NT3-123], the 50% inhibitory concentration (IC50) is over 10000 nM in the assay with Class-lla HDAC and over 50000 nM in the assay with Class-I HDAC.

As for `O=C(NC1CCN(Cc2ccccc2I)C1)c1ccc(-c2noc(C(F)(F)F)n2)cc1` (stereo not drawn) [NT3-127B], the 50% inhibitory concentration (IC50) with Class-lla HDAC is 1000 nM; in the assay with Class-I HDAC, over 50000 nM.

As to `O=C(NC1CCN(Cc2ccccc2F)C1)c1ccc(-c2noc(C(F)(F)F)n2)cc1` (stereo not drawn) [NT3-132B], the figures for the 50% inhibitory concentration (IC50) in the assay with Class-lla HDAC and in the assay with Class-I HDAC were 300 nM and over 50000 nM, respectively.

Turning to `CC(C)(CNC(=O)c1ccc(-c2noc(C(F)(F)F)n2)cc1)c1coc(-c2ccccc2)n1` [NT-134], the IC50 is over 5000 nM in the assay on Class-lla HDAC and over 15000 nM with Class-I HDAC.

With `CN(Cc1ccccc1)C(=O)CCNC(=O)c1ccc(-c2noc(C(F)(F)F)n2)cc1` [NT-174], the 50% inhibitory concentration (IC50) in the assay on Class-lla HDAC was 905 ± 220 nM; with Class-I HDAC, over 15000 nM.

Consider `CN(Cc1ccccc1)C(=O)CCNC(=O)c1cccc(-c2noc(C(F)(F)F)n2)c1` [NT-175], for which the IC50 with Class-lla HDAC and in the assay with Class-I HDAC was over 50000 nM in each case.

Regarding `COC[C@@H](NC(=O)c1ccc(-c2noc(C(F)(F)F)n2)cc1)C(=O)NCc1ccccc1` [NT-176], the results for the concentration for half-maximal inhibition (IC50) in the assay with Class-lla HDAC and in the assay on Class-I HDAC were 537 ± 150 nM and over 15000 nM, respectively.

As to `COC[C@@H](NC(=O)c1ccc(-c2noc(C(F)(F)F)n2)nc1)C(=O)NCc1ccccc1` [NT-192], the values for the IC50 in the assay on Class-lla HDAC and in the assay on Class-I HDAC were 1710 ± 330 nM and over 15000 nM, respectively.

One may read the IC50 as the midpoint of a concentration-inhibition curve.
